Experimental data published in ChEMBL document CHEMBL4699577, “Highly Oxygenated Caryophyllene-Type Sesquiterpenes from a Plant-Associated Fungus, Pestalotiopsis hainanensis, and Their Biosynthetic Gene Cluster” (J Nat Prod, 2020).

Assays:
HL-60 = assay: Growth inhibition of human HL-60 cells after 96 hrs by MTT assay; type: functional, cell-based; details: HL-60, 96 h
THP-1 = assay: Growth inhibition of human THP-1 cells after 96 hrs by MTT assay; type: functional, cell-based; details: THP-1, 96 h

- IC50 (HL-60): 6.2 µM
- IC50 (THP-1): 2 µM
Compound: CO[C@@H]1[C@H]2[C@H](O)O[C@@]3([C@@H](OC(C)=O)C/C(C)=C/[C@H]1OC)[C@@H]2CC3(C)C
